Values after ≈ are worked out from the molar mass of the structure shown. Read-outs that look alike come from different tables or passages of the source.
Assays:
VREf isolates = assay: microbe, parasite or virus in culture
Protocol: (§1) Initial organism identification and susceptibility determination were performed via MALDI-TOF MS (Bruker Daltonics, Billerica, MA, USA) and MicroScan Walkaway (Beckman Coulter, Brea, CA), respectively, in the clinical microbiology laboratory. Pure colonies of the VREf isolates cultured from the CSF on hospital days 33 and 57 and from blood on days 35 and 52 were sub-cultured to BD BBL chocolate II agar slants (Becton, Dickinson and Company, Sparks, MD, USA) and shipped immediately overnight to the research laboratory where all subsequent testing was performed. Identification and resistance marker detection was confirmed via the Verigene Gram-positive blood culture assay (Luminex, Northbrook, IL, USA).
Minimum inhibitory concentrations were determined in triplicate according to CLSI guidelines. Modal MIC values are reported.

VREf = assay: microbe, parasite or virus in culture; type: cell-based, Enterococcus faecium; conditions: for local laboratory susceptibility result: VREf blood isolate of hospital day 22
Protocol: as §1

[1] = human, in vivo; cited from earlier work
[2] = Enterococcus faecium, VREf isolate from CSF, hospital day 33, modal MIC of triplicate, CLSI guidelines
[3] = Enterococcus faecium, VREf isolate from CSF, hospital day 57, modal MIC of triplicate, CLSI guidelines
[4] = Enterococcus faecium, VREf isolate from blood, hospital day 35, modal MIC of triplicate, CLSI guidelines
[5] = Enterococcus faecium, VREf isolate from blood, hospital day 52, modal MIC of triplicate, CLSI guidelines
[6] = VREf isolate from CSF, hospital day 33, CLSI M100-S30 unless footnoted (b: CLSI vancomycin-susceptible E. faecalis; c: FDA E. faecalis; d: EUCAST v.10.0 E. faecium)
[7] = VREf isolate from CSF, hospital day 57, CLSI M100-S30 unless footnoted
[8] = VREf isolate from blood, hospital day 35, CLSI M100-S30 unless footnoted
[9] = VREf isolate from blood, hospital day 52, CLSI M100-S30 unless footnoted
[10] = VREf blood isolate returning after 11 days of daptomycin therapy
[11] = VREf isolate from CSF, hospital day 33, modal MIC of triplicate, CLSI guidelines
[12] = VREf isolate from CSF, hospital day 57, modal MIC of triplicate, CLSI guidelines
[13] = VREf isolate from blood, hospital day 35, modal MIC of triplicate, CLSI guidelines
[14] = VREf isolate from blood, hospital day 52, modal MIC of triplicate, CLSI guidelines

SMILES | MIC (VREf isolates; [2]) | MIC (VREf isolates; [3]) | MIC (VREf isolates; [4]) | MIC (VREf isolates; [5]) | MIC (VREf; Enterococcus faecium, VREf blood isolate returning after 11 days of daptomycin therapy, daptomycin by broth microdilution) | MIC (VREf isolates) | Interpretive Category (VREf isolates; [6]) | Interpretive Category (VREf isolates; [7]) | Interpretive Category (VREf isolates; [8]) | Interpretive Category (VREf isolates; [9]) | local laboratory susceptibility result (VREf) | susceptibility category (VREf; [10]) | CSF penetration [1] | susceptibility category (VREf; first episode of VREf bacteremia, 2.5 months before admission) | MIC (VREf isolates; [11]) | MIC (VREf isolates; [12]) | MIC (VREf isolates; [13]) | MIC (VREf isolates; [14])
CN(C)[C@@H]1C(O)=C(C(N)=O)C(=O)[C@@]2(O)C(O)=C3C(=O)c4c(O)cccc4[C@@](C)(O)[C@H]3C[C@@H]12 [Tetracycline] |  |  |  |  |  |  | R | R | R | R |  |  |  |  |  |  |  | 
CO[C@H]1/C=C/O[C@@]2(C)Oc3c(C)c(O)c4c(O)c(c(/C=N/N5CCN(C)CC5)c(O)c4c3C2=O)NC(=O)/C(C)=C\C=C\[C@H](C)[C@H](O)[C@@H](C)[C@@H](O)[C@@H](C)[C@H](OC(C)=O)[C@@H]1C [Rifampin] | ≥ 4 mg/L | ≥ 4 mg/L | ≥ 4 mg/L | ≥ 4 mg/L |  |  | R | R | R | R |  |  |  |  |  |  |  | 
CC(=O)NC[C@H]1CN(c2ccc(N3CCOCC3)c(F)c2)C(=O)O1 [Linezolid] | 16 mg/L | 16 mg/L | 16 mg/L | 16 mg/L | 2 mg/L (≈ 5.93 µM) |  | R | R | R | R | resistance | susceptible | 66–85% |  |  |  |  | 
O=C(N[C@H](CO)[C@H](O)c1ccc([N+](=O)[O-])cc1)C(Cl)Cl [Chloramphenicol] | ≥ 32 mg/L | ≥ 32 mg/L | ≥ 32 mg/L | ≥ 32 mg/L |  |  | R | R | R | R |  |  |  |  |  |  |  | 
CN[C@H](CC(C)C)C(=O)N[C@H]1C(=O)N[C@@H](CC(N)=O)C(=O)N[C@H]2C(=O)N[C@H]3C(=O)N[C@H](C(=O)N[C@H](C(=O)O)c4cc(O)cc(O)c4-c4cc3ccc4O)[C@H](O)c3ccc(c(Cl)c3)Oc3cc2cc(c3O[C@@H]2O[C@H](CO)[C@@H](O)[C@H](O)[C@H]2O[C@H]2C[C@](C)(N)[C@H](O)[C@H](C)O2)Oc2ccc(cc2Cl)[C@H]1O [Vancomycin] |  |  |  |  |  |  | R | R | R | R |  |  |  |  | ≥256 mg/L | ≥256 mg/L | ≥256 mg/L | ≥256 mg/L
C[C@@H]1O[C@@H]1P(=O)(O)O [Fosfomycin] | 64 mg/L | 64 mg/L | 64 mg/L | 64 mg/L |  |  | S | S | S | S |  |  |  |  |  |  |  | 
CCCCCCCCCCNCCN[C@@]1(C)C[C@H](O[C@H]2[C@H](Oc3c4cc5cc3Oc3ccc(cc3Cl)[C@@H](O)[C@@H](NC(=O)[C@@H](CC(C)C)NC)C(=O)N[C@@H](CC(N)=O)C(=O)N[C@H]5C(=O)N[C@H]3C(=O)N[C@H](C(=O)N[C@H](C(=O)O)c5cc(O)c(CNCP(=O)(O)O)c(O)c5-c5cc3ccc5O)[C@H](O)c3ccc(c(Cl)c3)O4)O[C@H](CO)[C@@H](O)[C@@H]2O)O[C@@H](C)[C@H]1O [Telavancin] |  |  |  |  |  |  |  |  |  |  |  |  |  |  | ≥4 mg/L | ≥4 mg/L | ≥4 mg/L | ≥4 mg/L
CCO/N=C(\C(=O)N[C@@H]1C(=O)N2C(C(=O)[O-])=C(Sc3nc(-c4cc[n+](C)cc4)cs3)CS[C@H]12)c1nsc(N)n1 [Ceftaroline] | ≥ 128 mg/L | ≥ 128 mg/L | ≥ 128 mg/L | ≥ 128 mg/L |  |  |  |  |  |  |  |  |  |  |  |  |  | 

Continued, in another order:

MIC (VREf isolates; [2]) | MIC (VREf isolates; [3]) | MIC (VREf isolates; [4]) | MIC (VREf isolates; [5]) | MIC (VREf; Enterococcus faecium, VREf blood isolate returning after 11 days of daptomycin therapy, daptomycin by broth microdilution) | MIC (VREf isolates) | SMILES | Interpretive Category (VREf isolates; [6]) | Interpretive Category (VREf isolates; [7]) | Interpretive Category (VREf isolates; [8]) | Interpretive Category (VREf isolates; [9]) | local laboratory susceptibility result (VREf) | susceptibility category (VREf; [10]) | CSF penetration [1] | susceptibility category (VREf; first episode of VREf bacteremia, 2.5 months before admission) | MIC (VREf isolates; [11]) | MIC (VREf isolates; [12]) | MIC (VREf isolates; [13]) | MIC (VREf isolates; [14])
≥ 16 mg/L | ≥ 16 mg/L | ≥ 16 mg/L | ≥ 16 mg/L |  |  | CC1(C)S[C@@H]2[C@H](NC(=O)[C@H](N)c3ccccc3)C(=O)N2[C@H]1C(=O)O [Ampicillin] | R | R | R | R |  |  |  |  |  |  |  | 
≥ 8 mg/L | ≥ 8 mg/L | ≥ 8 mg/L | ≥ 8 mg/L |  |  | C[C@H]1COc2c(N3CCN(C)CC3)c(F)cc3c(=O)c(C(=O)O)cn1c23 [Levofloxacin] | R | R | R | R |  |  |  |  |  |  |  | 
≥ 128 mg/L | ≥ 128 mg/L | ≥ 128 mg/L | ≥ 128 mg/L |  |  | O=C1CN(/N=C/c2ccc([N+](=O)[O-])o2)C(=O)N1 [Nitrofurantoin] | R | R | R | R |  |  |  |  |  |  |  | 
≤ 500 mg/L | ≤ 500 mg/L | ≤ 500 mg/L | ≤ 500 mg/L |  |  | CNC(C)C1CCC(N)C(OC2C(N)CC(N)C(OC3OCC(C)(O)C(NC)C3O)C2O)O1 (stereo not drawn) [Gentamicin] | S | S | S | S |  |  |  |  |  |  |  | 
≥ 128 mg/L | ≥ 128 mg/L | ≥ 128 mg/L | ≥ 128 mg/L |  |  | CO/N=C(\C(=O)N[C@@H]1C(=O)N2C(C(=O)O)=C(CSc3nc(=O)c(=O)[nH]n3C)CS[C@H]12)c1csc(N)n1 [Ceftriaxone] |  |  |  |  |  |  |  |  |  |  |  | 
≥ 8 mg/L | ≥ 8 mg/L | ≥ 8 mg/L | ≥ 8 mg/L |  |  | CC[C@H]1OC(=O)[C@H](C)[C@@H](O[C@H]2C[C@@](C)(OC)[C@@H](O)[C@H](C)O2)[C@H](C)[C@@H](O[C@@H]2O[C@H](C)C[C@H](N(C)C)[C@H]2O)[C@](C)(O)C[C@@H](C)C(=O)[C@H](C)[C@@H](O)[C@]1(C)O [Erythromycin] | R | R | R | R |  |  |  |  |  |  |  | 
> 8 mg/L | > 8 mg/L | > 8 mg/L | > 8 mg/L |  |  | Nc1nc(-n2cc(C(=O)O)c(=O)c3cc(F)c(N4CC(O)C4)c(Cl)c32)c(F)cc1F [Delafloxacin] | R | R | R | R |  |  |  |  |  |  |  | 
 |  |  |  |  | ≥8 mg/L | CCCCCCCCCC(=O)N[C@@H](Cc1c[nH]c2ccccc12)C(=O)N[C@H](CC(N)=O)C(=O)N[C@@H](CC(=O)O)C(=O)N[C@@H]1C(=O)NCC(=O)N[C@@H](CCCN)C(=O)N[C@@H](CC(=O)O)C(=O)N[C@H](C)C(=O)N[C@@H](CC(=O)O)C(=O)NCC(=O)N[C@H](CO)C(=O)N[C@@H]([C@H](C)CC(=O)O)C(=O)N[C@@H](CC(=O)c2ccccc2N)C(=O)O[C@@H]1C [Daptomycin] | R | R | R | R | resistance | resistant |  | susceptible dose-dependent |  |  |  | 
1 mg/L | 1 mg/L | 1 mg/L | 1 mg/L |  |  | CN(C)c1cc(CNCC(C)(C)C)c(O)c2c1C[C@H]1C[C@H]3[C@H](N(C)C)C(O)=C(C(N)=O)C(=O)[C@@]3(O)C(O)=C1C2=O [Omadacycline] | R | R | R | R |  |  |  |  |  |  |  | 
1 mg/L | 2 mg/L | 1 mg/L | 2 mg/L |  |  | C=C[C@]1(C)C[C@@H](OC(=O)CS[C@@H]2CC[C@@H](N)C[C@H]2O)[C@]2(C)[C@H](C)CC[C@]3(CCC(=O)[C@H]32)[C@@H](C)[C@@H]1O [Lefamulin] |  |  |  |  |  |  |  |  |  |  |  | 
 |  |  |  |  | ≥4 mg/L | CN[C@H]1C(=O)N[C@@H]2Cc3ccc(cc3)Oc3cc4cc(c3O[C@@H]3O[C@H](C(=O)O)[C@@H](O)[C@H](O)[C@H]3NC(=O)CCCCCCCCC(C)C)Oc3ccc(cc3Cl)[C@@H](O)[C@@H]3NC(=O)[C@H](NC(=O)[C@@H]4NC(=O)[C@@H](NC2=O)c2cc(cc(O)c2Cl)Oc2cc1ccc2O)c1ccc(O)c(c1)-c1c(O[C@H]2O[C@H](CO)[C@@H](O)[C@H](O)[C@@H]2O)cc(O)cc1[C@@H](C(=O)NCCCN(C)C)NC3=O [Dalbavancin] |  |  |  |  |  |  |  |  |  |  |  | 
